The results in this text go back to ChEMBL document CHEMBL2163222 (J Med Chem, 2012).

The source made the active and inactive calls. The calls are words filed in the database; no cut-off is given here.

For one series, the system named is T98G. Put plainly: cells. Conditions: Homo sapiens, 72 h.
The test system of the next series is Malme-3M. Briefly: Growth inhibition of human MALME-3M cells at 10 uM by NCI-60 cell inhibition assay. The format is functional. The following applies: read-out: GI.
The test system of the next series is SNB-75. Put plainly: Growth inhibition of human SNB75 cells at 10 uM by NCI-60 cell inhibition assay. The format is functional. Conditions: read-out: GI.
A short description of series [1]: Solubility of compound at pH 7.4. The format is physicochemical. The following applies: buffer, read-out: solubility.
For a further series, the system named is SF-539. Put plainly: Growth inhibition of human SF539 cells at 10 uM by NCI-60 cell inhibition assay. The format is functional. The following applies: read-out: GI.
Another series relates to K562. Briefly: Growth inhibition of human K562 cells at 10 uM by NCI-60 cell inhibition assay. It counts as functional. Conditions: read-out: GI.
In a further series the test system is SK-MEL-28. Put plainly: Growth inhibition of human SK-MEL-28 cells at 10 uM by NCI-60 cell inhibition assay. It counts as functional. The following applies: read-out: GI.
The subject of the next series is MDA-MB-468. Briefly: Growth inhibition of human MDA-MB-468 cells at 10 uM by NCI-60 cell inhibition assay. It counts as functional. The following applies: read-out: GI.
A further series has as its system A498. Put plainly: Growth inhibition of human A498 cells at 10 uM by NCI-60 cell inhibition assay. The format is functional. Conditions: read-out: GI.
Another series relates to PC-3. Briefly: Growth inhibition of human PC3 cells at 10 uM by NCI-60 cell inhibition assay. The format is functional. The following applies: read-out: GI.
In another series the test system is TK-10. Briefly: Growth inhibition of human TK10 cells at 10 uM by NCI-60 cell inhibition assay. The format is functional. Conditions: read-out: GI.
For a further series, the system named is OVCAR-8. Put plainly: Growth inhibition of human OVCAR8 cells at 10 uM by NCI-60 cell inhibition assay. The format is functional. The following applies: read-out: GI.
The next series has as its system NCI-H460. Put plainly: Growth inhibition of human NCI-H460 cells at 10 uM by NCI-60 cell inhibition assay. The following applies: read-out: GI. It counts as functional.
Series [2] addresses Dual specificity tyrosine-phosphorylation-regulated kinase 1A (Homo sapiens, UniProt Q13627). Briefly: Inhibition of DYRK1A kinase using RBER-CHKtide substrate by radiometric protein kinase assay.
A further series deals with U-373MG ATCC. Briefly: Inhibition of eIF2 activity in human U373 cells at 0.5 uM after 4 hrs by Western blotting method. The format is functional, cell-based. Background: A western blot detects proteins with antibodies after separation by electrophoresis.
The next series has as its system SNB-19. Put plainly: Growth inhibition of human SNB19 cells at 10 uM by NCI-60 cell inhibition assay. The format is functional. Conditions: read-out: GI.
The subject of another series is SK-MEL-2. Put plainly: Growth inhibition of human SK-MEL-2 cells at 10 uM by NCI-60 cell inhibition assay. It counts as functional. Conditions: read-out: GI.
Series [3] can be described thus: Growth inhibition of human OE21 cells after 3 days by MTT assay. The format is functional, cell-based. Conditions: OE21, 72 h. In general terms: Tetrazolium assays rely on reduction of a dye to a coloured formazan, in cell work by metabolically active cells.
In the next series the test system is U-251. Briefly: Growth inhibition of human U251 cells at 10 uM by NCI-60 cell inhibition assay. The format is functional. The following applies: read-out: GI.
The next series relates to HCT-116. Put plainly: Growth inhibition of human HCT116 cells at 10 uM by NCI-60 cell inhibition assay. The format is functional. The following applies: read-out: GI.
A short description of series [4]: Growth inhibition of human NCI-ADR-RES cells at 10 uM by NCI-60 cell inhibition assay. It counts as functional. Conditions: read-out: GI.
The subject of the next series is SR. Briefly: Growth inhibition of human SR cells at 10 uM by NCI-60 cell inhibition assay. The format is functional. The following applies: read-out: GI.

For the molecule `Cc1c2c(cc[n+]1Cc1ccccc1)c1ccc(OCC3CCCCC3)cc1n2CC1CCCCC1.[Br-]`, the IC50 (as a rule, the midpoint of a concentration-inhibition curve) in the series with T98G stood at 160 nM; in series [2], 43000 nM; in [3] it was 420 nM. Also, the inhibition of growth at 10 µM was -70.3% in the series on Malme-3M; -87.3% in the series with SNB-75; -85.2% in the series with SF-539; -45.9% in the series on K562; -95.8% in the series on SK-MEL-28; -86.6% with MDA-MB-468. The inhibition of growth at 10 µM is -97.4% with A498; -75.8% in the series on PC-3; -93.6% with TK-10; -90.1% in the series with OVCAR-8; -93.4% in the series on NCI-H460; -90.7% in the series with SNB-19. Further, the inhibition of growth at 10 µM in the series with SK-MEL-2 is -86.5%; in the series with U-251, -92.5%; with HCT-116, -98.3%; in series [4], 31.5%; in the series on SR, -57.6%. For the same molecule, the solubility (usually the dissolved amount per volume that the medium holds) in [1] stood at 123 µM. Further, the inhibition entry in the series on U-373MG ATCC was “inactive”.
`Cc1c2c(cc[n+]1Cc1ccccc1)c1ccc(OCc3ccccc3)cc1n2Cc1ccccc1.[Br-]`: the IC50 with T98G was 480 nM; in series [3] it was 1300 nM. The inhibition of growth at 10 µM in the series with Malme-3M was -73.6%; in the series on SNB-75 it was -18%; with SF-539, -5.52%; in the series with K562, -25%; in the series with SK-MEL-28, -56.5%; in the series with MDA-MB-468 it was -42.3%. Moreover, the inhibition of growth at 10 µM is -34.5% in the series with A498; -44.8% in the series on PC-3; 11.8% in the series with TK-10; -70.9% in the series with OVCAR-8; -87.5% in the series with NCI-H460; -13.3% in the series with SNB-19. Moreover, the inhibition of growth at 10 µM with SK-MEL-2 was -36%; with U-251, -80.2%; in the series on HCT-116, -95.6%; in [4], 65%; with SR, -52.5%. The solubility in series [1] is 461 µM. In the series with U-373MG ATCC, the inhibition entry was “Active”.
